Patent US9309242B2, “Substituted pyrido[2,3-b]pyrazines as FGFR kinase inhibitors” (priority 2011, dated 2016)
Where a name gives a salt, the structure may show the parent alone. Read-outs that look alike come from different tables or passages of the source.

How the values were obtained:
[1] = system: Ba/F3-FGFR1-transfected cells; assay: Ba/F3-FGFR1 (plus IL3) cellular proliferation assay, counterscreen with 10 ng/ml murine IL3; type: cell-based; settings: for BAF3-FGFR1 (PLUS IL3) pIC50: plus IL3 (10 ng/ml murine IL3, counterscreen)
Summary of the method: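 Proliferation read-out: resazurin-based Alamar Blue fluorescence (540/590 nm) after 4 h, following 24 h compound treatment of 20000 Ba/F3-FGFR1 cells per well in 10% FBS RPMI at 37° C. IL3 counterscreen used the same protocol plus 10 ng/ml murine IL3.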

FGFR2 (h) = FGFR2 (h) (Homo sapiens, UniProt P21802); assay: FGFR2 (enzymatic assay), TR-FRET; type: biochemical; settings: enzymatic assay, read-out: FGFR 2 pIC50 (converted)
Summary of the method: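 Phosphorylation of 500 nM Btn-Flt3 by human FGFR2 (150 ng/ml) is measured at 0.4 μM ATP. The buffer is 50 mM HEPES pH 7.5 containing 6 mM MnCl2, 1 mM DTT, 0.1 mM Na3VO4 and 0.01% Triton-X-100, and compound is tested at 1% DMSO final.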

FGFR1 (h) = FGFR1 (h) (Homo sapiens, UniProt P11362); assay: FGFR1 (enzymatic assay), TR-FRET; type: biochemical; settings: read-out: FGFR 1 pIC50 (converted)
[2] = biological target: T1, Ba/F3-KDR-transfected cells (Homo sapiens, UniProt P35968); assay: Ba/F3-KDR (minus IL3) cellular proliferation assay, Alamar Blue; type: cell-based
T1 construct: BAF3-KDR (MIN IL3) pIC50; other: minus IL3
T1 sequence (P35968 whole entry, change not shown): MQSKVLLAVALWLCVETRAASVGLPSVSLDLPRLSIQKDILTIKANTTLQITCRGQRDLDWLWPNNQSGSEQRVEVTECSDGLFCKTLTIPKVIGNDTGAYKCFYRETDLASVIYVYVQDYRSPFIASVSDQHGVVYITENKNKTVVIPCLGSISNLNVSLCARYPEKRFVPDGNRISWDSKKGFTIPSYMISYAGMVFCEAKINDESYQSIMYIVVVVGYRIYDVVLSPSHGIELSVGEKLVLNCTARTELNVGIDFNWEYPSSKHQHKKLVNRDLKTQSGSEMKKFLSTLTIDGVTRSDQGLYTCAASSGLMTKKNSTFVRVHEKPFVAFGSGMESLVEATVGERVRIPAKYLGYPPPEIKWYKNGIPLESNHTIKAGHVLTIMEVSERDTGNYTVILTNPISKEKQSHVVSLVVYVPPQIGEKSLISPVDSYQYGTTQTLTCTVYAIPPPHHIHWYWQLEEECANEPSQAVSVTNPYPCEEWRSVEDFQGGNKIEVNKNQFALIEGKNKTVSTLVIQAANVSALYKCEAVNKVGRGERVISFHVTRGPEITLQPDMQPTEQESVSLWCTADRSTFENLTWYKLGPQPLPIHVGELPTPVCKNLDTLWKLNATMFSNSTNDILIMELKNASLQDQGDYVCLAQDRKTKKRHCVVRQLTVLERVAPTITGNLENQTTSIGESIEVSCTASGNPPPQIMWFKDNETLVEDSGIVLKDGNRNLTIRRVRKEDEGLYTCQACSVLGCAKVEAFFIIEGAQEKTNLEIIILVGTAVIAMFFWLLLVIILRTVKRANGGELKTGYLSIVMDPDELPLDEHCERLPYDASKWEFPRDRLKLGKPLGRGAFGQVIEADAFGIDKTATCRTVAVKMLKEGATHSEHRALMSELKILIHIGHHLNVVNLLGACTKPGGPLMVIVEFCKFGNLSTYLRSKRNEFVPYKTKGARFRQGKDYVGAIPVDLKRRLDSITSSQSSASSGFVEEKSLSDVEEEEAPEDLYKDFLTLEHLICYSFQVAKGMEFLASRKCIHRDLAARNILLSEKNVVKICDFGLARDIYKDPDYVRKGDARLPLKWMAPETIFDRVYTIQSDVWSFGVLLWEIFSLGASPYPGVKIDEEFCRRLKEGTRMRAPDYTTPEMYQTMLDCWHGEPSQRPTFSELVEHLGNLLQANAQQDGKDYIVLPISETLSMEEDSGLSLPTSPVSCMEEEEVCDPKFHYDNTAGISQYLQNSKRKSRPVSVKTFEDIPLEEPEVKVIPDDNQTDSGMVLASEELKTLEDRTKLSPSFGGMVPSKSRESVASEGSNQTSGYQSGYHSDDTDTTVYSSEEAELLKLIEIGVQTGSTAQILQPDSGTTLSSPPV
Summary of the method: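 Cells grown with test compound at 37° C and 5% CO2 for 24 hours were given a resazurin/ferricyanide/ferrocyanide reagent for 4 hours before fluorescence (540/590 nm) was recorded.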

[3] = system: Ba/F3-KDR-transfected cells; assay: Ba/F3-KDR (plus IL3) cellular proliferation assay, counterscreen with 10 ng/ml murine IL3; type: cell-based; settings: for BAF3-KDR (PLUS IL3) pIC50: plus IL3 (10 ng/ml murine IL3, counterscreen)
Protocol: Ba/F3-KDR (Minus IL3 or Plus IL3) (Cellular Proliferation Assay)
In a 384 well plate, 100 n1 of compound dilution in DMSO was sprayed before adding 50 μl cell culture medium (phenol red free RPMI-1640, 10% FBS, 2 mM L-Glutamine and 50 μg/ml Gentamycin) containing 20000 cells per well of Ba/F3-KDR-transfected cells. Cells were put in an incubator at 37° C. and 5% CO2. After 24 hours, 10 μl of Alamar Blue solution (0.5 mM K3Fe(CN)6, 0.5 mM K4Fe(CN)6, 0.15 mM Resazurin and 100 mM Phosphate Buffer) was added to the wells, incubated for 4 hours at 37° C. and 5% CO2 before RFU's (Relative Fluorescence Units) (ex. 540 nm., em. 590 nm.) were measured in a fluororescence plate reader.
As a counterscreen the same experiment was performed in the presence of 10 ng/ml murine IL3.

KDR (h) = KDR (h) (Homo sapiens, UniProt P35968); assay: KDR (VEGFR2) (enzymatic assay), TR-FRET; type: biochemical; settings: for IC50: read-out: VEGFR 2 (KDR) pIC50 (converted)
Summary of the method: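 Low-ATP (3 μM) TR-FRET kinase assay using 500 nM Btn-Flt3 peptide and 150 ng/ml enzyme, run 2 h at room temperature with 6 mM MnCl2 and 0.1 mM Na3VO4. Signal from Eu-anti-P-Tyr/SA-XL-665 is recorded in RFU.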

FGFR3 (h) = FGFR3 (h) (Homo sapiens, UniProt P22607); assay: FGFR3 (enzymatic assay), TR-FRET; type: biochemical; settings: read-out: FGFR 3 pIC50 (converted)
Source text: Time-Resolved Fluorescence Resonance Energy Transfer (TR-FRET) signal (ex340 nm.

[4] = biological target: Ba/F3-FGFR4-transfected cells (Homo sapiens, UniProt P22455); assay: Ba/F3-FGFR4 cellular proliferation assay, Alamar Blue; type: cell-based
Sequence of Ba/F3-FGFR4-transfected cells (P22455 whole entry, change not shown): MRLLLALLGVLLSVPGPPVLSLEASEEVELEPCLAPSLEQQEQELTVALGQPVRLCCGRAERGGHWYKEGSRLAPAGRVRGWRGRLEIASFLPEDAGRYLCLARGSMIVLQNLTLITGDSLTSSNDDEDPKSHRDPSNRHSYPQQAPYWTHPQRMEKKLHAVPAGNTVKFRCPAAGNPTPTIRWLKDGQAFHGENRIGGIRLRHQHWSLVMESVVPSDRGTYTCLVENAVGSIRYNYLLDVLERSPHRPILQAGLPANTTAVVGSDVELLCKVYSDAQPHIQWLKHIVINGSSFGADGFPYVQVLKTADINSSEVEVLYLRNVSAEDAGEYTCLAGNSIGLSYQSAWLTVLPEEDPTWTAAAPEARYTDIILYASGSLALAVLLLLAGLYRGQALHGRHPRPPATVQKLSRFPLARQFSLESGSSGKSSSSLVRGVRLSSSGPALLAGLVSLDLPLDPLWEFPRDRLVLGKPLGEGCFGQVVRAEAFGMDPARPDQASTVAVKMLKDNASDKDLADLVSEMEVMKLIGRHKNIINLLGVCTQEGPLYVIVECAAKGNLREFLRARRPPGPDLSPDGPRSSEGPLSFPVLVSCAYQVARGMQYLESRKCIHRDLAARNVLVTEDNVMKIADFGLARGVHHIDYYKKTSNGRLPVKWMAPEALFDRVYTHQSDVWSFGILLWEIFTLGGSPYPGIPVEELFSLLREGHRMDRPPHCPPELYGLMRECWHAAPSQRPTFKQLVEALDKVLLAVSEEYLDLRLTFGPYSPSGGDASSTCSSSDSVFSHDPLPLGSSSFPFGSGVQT
Summary of the method: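 Here, cells seeded at 20000 per well were treated 24 hours with compound, then given a 4-hour Alamar Blue incubation at 37° C before RFU measurement at ex. 540 nm and em. 590 nm.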

FGFR4 (h) = FGFR4 (h) (Homo sapiens, UniProt P22455); assay: FGFR4 (enzymatic assay), TR-FRET; type: biochemical; settings: FGFR 4 pIC50, enzymatic assay
Sequence of FGFR4 (h) (P22455 22-802): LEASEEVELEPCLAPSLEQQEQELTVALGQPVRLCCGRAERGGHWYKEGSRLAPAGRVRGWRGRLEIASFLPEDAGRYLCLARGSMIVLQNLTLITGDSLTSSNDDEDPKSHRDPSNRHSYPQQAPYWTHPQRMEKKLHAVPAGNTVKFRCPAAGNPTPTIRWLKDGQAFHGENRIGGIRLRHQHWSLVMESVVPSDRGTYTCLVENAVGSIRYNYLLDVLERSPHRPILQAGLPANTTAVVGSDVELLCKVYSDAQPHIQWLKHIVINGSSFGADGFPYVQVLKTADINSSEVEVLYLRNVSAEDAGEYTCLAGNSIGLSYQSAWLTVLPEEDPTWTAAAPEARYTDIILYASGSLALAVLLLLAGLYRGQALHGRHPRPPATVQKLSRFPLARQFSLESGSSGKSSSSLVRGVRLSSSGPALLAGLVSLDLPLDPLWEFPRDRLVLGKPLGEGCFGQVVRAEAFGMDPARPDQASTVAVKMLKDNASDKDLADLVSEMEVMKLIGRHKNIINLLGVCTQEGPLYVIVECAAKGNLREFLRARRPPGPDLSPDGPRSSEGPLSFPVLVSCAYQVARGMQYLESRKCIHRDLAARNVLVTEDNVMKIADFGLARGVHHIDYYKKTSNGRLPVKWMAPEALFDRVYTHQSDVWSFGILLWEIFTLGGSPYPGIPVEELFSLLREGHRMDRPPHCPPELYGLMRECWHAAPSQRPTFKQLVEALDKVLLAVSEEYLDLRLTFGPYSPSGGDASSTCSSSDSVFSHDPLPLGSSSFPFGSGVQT

[5] = biological target: T2, Ba/F3-FGFR1-transfected cells (Homo sapiens, UniProt P11362); assay: Ba/F3-FGFR1 (minus IL3) cellular proliferation assay, Alamar Blue; type: cell-based
T2 construct: BAF3-FGFR1 (MIN IL3) pIC50; other: minus IL3
T2 sequence (P11362 whole entry, change not shown): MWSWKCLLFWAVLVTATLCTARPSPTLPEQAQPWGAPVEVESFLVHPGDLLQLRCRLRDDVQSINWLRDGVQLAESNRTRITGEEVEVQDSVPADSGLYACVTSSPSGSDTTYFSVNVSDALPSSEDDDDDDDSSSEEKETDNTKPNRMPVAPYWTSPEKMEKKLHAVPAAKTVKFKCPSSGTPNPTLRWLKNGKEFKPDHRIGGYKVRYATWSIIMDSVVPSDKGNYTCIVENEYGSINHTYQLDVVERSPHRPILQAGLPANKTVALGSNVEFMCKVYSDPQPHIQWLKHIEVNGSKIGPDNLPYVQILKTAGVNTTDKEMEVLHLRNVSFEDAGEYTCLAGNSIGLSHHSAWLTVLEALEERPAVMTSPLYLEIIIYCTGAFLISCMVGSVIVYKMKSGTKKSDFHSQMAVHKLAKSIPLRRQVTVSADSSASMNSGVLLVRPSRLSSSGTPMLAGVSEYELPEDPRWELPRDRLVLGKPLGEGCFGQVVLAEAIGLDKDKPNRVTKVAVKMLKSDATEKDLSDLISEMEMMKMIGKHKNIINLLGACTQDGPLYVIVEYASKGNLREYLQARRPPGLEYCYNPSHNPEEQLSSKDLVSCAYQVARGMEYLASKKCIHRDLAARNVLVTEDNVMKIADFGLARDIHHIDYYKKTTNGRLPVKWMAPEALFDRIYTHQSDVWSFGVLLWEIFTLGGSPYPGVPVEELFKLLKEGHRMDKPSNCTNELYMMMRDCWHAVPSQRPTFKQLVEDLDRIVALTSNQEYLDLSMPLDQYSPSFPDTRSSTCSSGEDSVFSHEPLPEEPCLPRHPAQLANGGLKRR
Summary of the method: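 Ba/F3 cells transfected with FGFR1 (20000 cells/well) were plated onto compound in phenol red-free RPMI-1640 with 10% FBS, 2 mM L-glutamine and gentamycin, then kept 24 h at 37 °C, 5% CO2. Alamar Blue (resazurin) was added for 4 h and fluorescence read at ex 540/em 590 nm.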

[6] = biological target: T3, Ba/F3-FGFR3-transfected cells (Homo sapiens, UniProt P22607); assay: Ba/F3-FGFR3 (minus IL3) cellular proliferation assay, Alamar Blue; type: cell-based
T3 construct: BAF3-FGFR3 (MIN IL3) pIC50; other: minus IL3
T3 sequence (P22607 whole entry, change not shown): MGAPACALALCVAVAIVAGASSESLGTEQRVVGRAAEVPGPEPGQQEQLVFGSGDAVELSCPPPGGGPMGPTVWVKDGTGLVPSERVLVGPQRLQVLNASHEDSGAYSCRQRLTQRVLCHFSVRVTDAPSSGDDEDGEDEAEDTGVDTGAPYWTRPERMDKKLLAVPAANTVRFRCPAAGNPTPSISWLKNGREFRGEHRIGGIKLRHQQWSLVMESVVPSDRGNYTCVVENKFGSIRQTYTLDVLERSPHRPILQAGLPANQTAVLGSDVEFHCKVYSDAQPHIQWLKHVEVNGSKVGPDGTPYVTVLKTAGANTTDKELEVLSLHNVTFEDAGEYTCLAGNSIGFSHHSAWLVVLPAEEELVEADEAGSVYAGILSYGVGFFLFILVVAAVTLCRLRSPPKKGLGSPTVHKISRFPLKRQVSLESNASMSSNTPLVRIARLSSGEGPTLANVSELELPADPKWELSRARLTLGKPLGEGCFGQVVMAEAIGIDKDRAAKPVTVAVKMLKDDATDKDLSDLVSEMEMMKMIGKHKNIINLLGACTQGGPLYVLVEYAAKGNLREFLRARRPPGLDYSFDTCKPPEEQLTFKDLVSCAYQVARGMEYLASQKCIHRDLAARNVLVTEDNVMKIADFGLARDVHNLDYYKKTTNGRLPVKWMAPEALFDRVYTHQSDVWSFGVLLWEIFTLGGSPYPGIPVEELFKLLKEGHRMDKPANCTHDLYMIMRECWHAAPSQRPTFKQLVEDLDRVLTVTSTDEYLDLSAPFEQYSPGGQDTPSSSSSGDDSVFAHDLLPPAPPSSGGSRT
Summary of the method: (§1)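 Ba/F3 cells transfected with FGFR3 were seeded at 20000 cells/well in phenol red-free RPMI-1640 with 10% FBS over compound in DMSO and kept 24 hours at 37° C, 5% CO2. Alamar Blue (resazurin) was then added for 4 hours and fluorescence read at ex 540/em 590 nm. The counterscreen repeated this with 10 ng/ml murine IL3.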

[7] = system: Ba/F3-FGFR3-transfected cells; assay: Ba/F3-FGFR3 (plus IL3) cellular proliferation assay, counterscreen with 10 ng/ml murine IL3; type: cell-based; settings: for BAF3-FGFR3 (PLUS IL3) pIC50: plus IL3 (10 ng/ml murine IL3, counterscreen)
Summary of the method: as §1

[8] = average values if tested multiple times

| SMILES | BAF3-FGFR1 (PLUS IL3) pIC50 [1] | IC50 (FGFR2 (h); [8]) | IC50 (FGFR1 (h); [8]) | BAF3-KDR (MIN IL3) pIC50 [2] | BAF3-KDR (PLUS IL3) pIC50 [3] | IC50 (KDR (h); [8]) | IC50 (FGFR3 (h); [8]) | BAF3-FGFR4 pIC50 [4] | IC50 (FGFR4 (h); [8]) | BAF3-FGFR1 (MIN IL3) pIC50 [5] | BAF3-FGFR3 (MIN IL3) pIC50 [6] | BAF3-FGFR3 (PLUS IL3) pIC50 [7] | IC50 (FGFR2 (h)) | IC50 (FGFR1 (h)) | IC50 (KDR (h)) | IC50 (FGFR3 (h)) | IC50 (FGFR4 (h)) | further results |
| --- | --- | --- | --- | --- | --- | --- | --- | --- | --- | --- | --- | --- | --- | --- | --- | --- | --- | --- |
| COc1cc(OC)cc(N(Cc2ncc[nH]2)c2ccc3ncc(-c4cnn(C)c4)nc3n2)c1 [24-hydrochloric acid salt] | <5 | 1.41 nM | 0.776 nM | 5.92 | <5 | 7.24 nM | 1.02 nM | 7.77 | 1.2 nM | 8.16 | 7.96 | <5 |  |  |  |  |  |  |
| COc1cc(OC)c(F)c(N(CC2CCC(=O)N2C)c2ccc3ncc(-c4cnn(C)c4)nc3n2)c1 (stereo not drawn) [Compound 161] | <5 |  |  | <5 | <5 |  |  | 5.78 |  | 6.26 | 6.08 | <5 | 10 nM | 20 nM | 126 nM | 6.92 nM | 37.2 nM |  |
| COc1cc(OC)cc(N(Cc2ncc[nH]2)c2ccc3ncc(-c4cnn(C)c4)nc3n2)c1 [24-phosphate salt] | <5 | 1.23 nM | 0.708 nM | 6.05 | <5 | 14.5 nM | 0.832 nM | 7.47 | 1.02 nM | 8.42 | 7.74 | <5 |  |  |  |  |  |  |
| COCC(O)CN(c1ccc2ncc(-c3cnn(C)c3)nc2n1)c1cc(OC)cc(OC)c1F (single isomer, unassigned) [Compound 59] | <5 | 1.82 nM | ~1.78 nM | 5.73 | <5 | 25.1 nM | 1.23 nM | 7.19 | 2.19 nM | 7.60 | 7.71 | <5 |  |  |  |  |  |  |
| COc1ccc(Cl)c(N(CC2CCC(=O)N2)c2ccc3ncc(-c4cnn(C)c4)nc3n2)c1Cl (stereo not drawn) [Compound 94] | <5 |  |  | <5 | <5 |  |  | <5 |  | 5.52 | ~5.56 | <5 | 49 nM | 97.7 nM |  | 81.3 nM | 676 nM | VEGFR 2 (KDR) pIC50 (KDR (h)): <6 |
| COc1cc(OC)c(F)c(N(Cc2nnc(NCCO)o2)c2ccc3ncc(-c4cnn(C)c4)nc3n2)c1 [Compound 283] |  |  |  | <5 |  |  |  | <5 |  | 5.18 | 5.26 |  | 5.13 nM | ~7.08 nM | 105 nM | 5.13 nM | 21.4 nM | IC50 ([1]; read-out: BAF3-FGFR1 (PLUS IL3) pIC50 (converted)): > 10 µM; IC50 ([3]; read-out: BAF3-KDR (PLUS IL3) pIC50 (converted)): > 10 µM; IC50 ([7]; read-out: BAF3-FGFR3 (PLUS IL3) pIC50 (converted)): > 10 µM |
